This is an account of results in patent US12377044B2, “Method and device for transdermal delivery of parathyroid hormone using a microprojection array” (Panther Life Sciences Corporation, priority 2010, dated 2025).

Structures are written as SMILES.

The nature of the data set: clinical. The note with it: female, human, in vivo, sc, 20 ug.

Method: The microprojection array described herein was used to administer transdermally hPTH (1-34) to healthy human subjects. As a comparator, hPTH (1-34) was also administered subcutaneously to a healthy group of human subjects.
In this study, a microprojection array was prepared as detailed in Example 9 and inserted into an applicator-array assembly to form a transdermal delivery system, as described in Example 10. […] The delivery system was designed to deliver a systemic dose of hPTH (1-34) across the stratum corneum barrier layer of the skin upon activation of the applicator to deploy an array of microstructures causing the array of microstructures to penetrate the stratum corneum. In this study, two dose levels were administered via the transdermal delivery system, 32 μg hPTH (1-34) and 64 μg hPTH (1-34) (32 μg hPTH (1-34)×2). Subjects received these doses by applying the transdermal microneedle delivery system MicroCor® device containing the indicated amount of hPTH in the distal tips of the microneedles in the array to an abdominal site, and leaving the device in place for five (5) minutes. The comparator treatment (the commercial hPTH product known as Forteo®) was subcutaneously administered via injection into the abdominal wall at a dose of 20 μg. Blood samples were drawn at designated times and analyzed for hPTH concentration. […]

`CC[C@H](C)[C@H](NC(=O)[C@H](CCC(=O)O)NC(=O)[C@H](CO)NC(=O)[C@@H](NC(=O)[C@@H](N)CO)C(C)C)C(=O)N[C@@H](CCC(N)=O)C(=O)N[C@@H](CC(C)C)C(=O)N[C@@H](CCSC)C(=O)N[C@@H](Cc1cnc[nH]1)C(=O)N[C@@H](CC(N)=O)C(=O)N[C@@H](CC(C)C)C(=O)NCC(=O)N[C@@H](CCCCN)C(=O)N[C@@H](Cc1cnc[nH]1)C(=O)N[C@@H](CC(C)C)C(=O)N[C@@H](CC(N)=O)C(=O)N[C@@H](CO)C(=O)N[C@@H](CCSC)C(=O)N[C@@H](CCC(=O)O)C(=O)N[C@@H](CCCN=C(N)N)C(=O)N[C@H](C(=O)N[C@@H](CCC(=O)O)C(=O)N[C@@H](Cc1c[nH]c2ccccc12)C(=O)N[C@@H](CC(C)C)C(=O)N[C@@H](CCCN=C(N)N)C(=O)N[C@@H](CCCCN)C(=O)N[C@@H](CCCCN)C(=O)N[C@@H](CC(C)C)C(=O)N[C@@H](CCC(N)=O)C(=O)N[C@@H](CC(=O)O)C(=O)N[C@H](C(=O)N[C@@H](Cc1cnc[nH]1)C(=O)N[C@@H](CC(N)=O)C(=O)N[C@@H](Cc1ccccc1)C(=O)O)C(C)C)C(C)C` [hPTH (1-34), human Parathyroid hormone (1-34)] returned a half-life of 52 min.
